Each structure is given as a SMILES string. Bounds are passed on as bounds.

Broadly, the EC50 is the midpoint of the concentration-response curve. The low end stands for greater potency, the high end for weaker potency.

The experiment concerns the target T1, GCase (Homo sapiens, UniProt P04062).
T1 construct: endogenous in cells; host or cells: HeLa cells
T1 sequence (P04062 40-536): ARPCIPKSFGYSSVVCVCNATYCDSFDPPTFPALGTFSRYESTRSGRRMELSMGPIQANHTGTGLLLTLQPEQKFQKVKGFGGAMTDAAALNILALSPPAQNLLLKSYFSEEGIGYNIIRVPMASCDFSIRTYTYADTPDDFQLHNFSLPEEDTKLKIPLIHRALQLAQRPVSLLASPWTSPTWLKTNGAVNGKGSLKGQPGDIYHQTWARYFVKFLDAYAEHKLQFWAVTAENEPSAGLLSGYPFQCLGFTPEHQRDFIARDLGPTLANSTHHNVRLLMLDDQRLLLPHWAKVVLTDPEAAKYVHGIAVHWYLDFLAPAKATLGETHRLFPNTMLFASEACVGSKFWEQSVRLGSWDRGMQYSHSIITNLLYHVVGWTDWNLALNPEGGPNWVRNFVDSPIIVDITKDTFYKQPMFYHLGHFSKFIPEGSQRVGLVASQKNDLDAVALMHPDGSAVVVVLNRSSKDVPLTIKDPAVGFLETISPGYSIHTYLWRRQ
In words: activation of GCase in a live cell PFB assay in HELA cells. Type of experiment: cell-based. The note with it: EC50 given as range classes. On the procedure:
Exemplary compounds were evaluated for activation of GCase in a live cell PFB assay in HELA cells (essentially as described in Ysselstein et al., “LRRK2 kinase activity regulates lysosomal glucocerebrosidase in neurons derived from Parkinson's disease patients” Nature Communications (2019) 10:5570). […] EC50 ranges: A: <10 μM; B: >10-50 μM; C: >50-100 μM; D: >100 μM.
Consider `O=C1N(c2ccc(C(F)(F)F)cn2)CCC12C1CCC2CN(c2cnc3cnn(CC(F)F)c3n2)C1` (stereo not drawn) [Cmpd 800], for which the EC50 was below 10 µM. As for `O=C1CC2(CN1c1ccc(C(F)(F)F)nc1)C1CC2CN(c2cnc3cnn(CC(F)F)c3n2)C1` (stereo not drawn) [Cmpd 801], the EC50 was in the range of 50 to 100 µM. To `O=C1CC2(CN1c1ccc(C(F)(F)F)cn1)C1CC2CN(c2cnc3cnn(CC(F)F)c3n2)C1` (stereo not drawn) [Cmpd 802] belongs 10 to 50 µM; to `O=C1N(c2cnc3cnn(CC(F)F)c3n2)CCC12CC1CCC(C2)N1c1ccc(C(F)(F)F)nc1` (stereo not drawn) [Cmpd 803], below 10 µM.

`O=C1CC2(CN1c1ccc(C(F)(F)F)nc1)C1CCC2CN(c2cnc3cnn(CC(F)F)c3n2)C1` (stereo not drawn) [Cmpd 804] yielded an EC50 of 10 to 50 µM.

On to `O=C1CC2(CN1c1cnc(C(F)(F)F)cn1)C1CCC2CN(c2cnc3cnn(CC(F)F)c3n2)C1` (stereo not drawn) [Cmpd 805], for which the concentration for a half-maximal effect (EC50) is 10 to 50 µM. Then `O=C1CC2(CN1c1cncc(C(F)(F)F)n1)C1CCC2CN(c2cnc3cnn(CC(F)F)c3n2)C1` (stereo not drawn) [Cmpd 806], with 10 to 50 µM; and `FC(F)Cn1ncc2ncc(N3CCC4(CCN(c5ccc(C(F)(F)F)nc5)CC4)CC3)nc21` [Cmpd 807], with below 10 µM; and `FC(F)Cn1ncc2ncc(N3CCC4(CCN(c5cncc(C(F)(F)F)c5)CC4)CC3)nc21` [Cmpd 808], with 10 to 50 µM. To `FC(F)Cn1ncc2ncc(N3CCC4(CCN(c5cccc(C(F)(F)F)n5)CC4)CC3)nc21` [Cmpd 809] belongs below 10 µM. In turn, `FC(F)Cn1ncc2ncc(N3CCC4(CCN(c5ccc(C(F)(F)F)cn5)CC4)CC3)nc21` [Cmpd 810] yielded an EC50 of 10 to 50 µM. `FC(F)Cn1ncc2ncc(N3CCC4(CCN(c5cc(C(F)(F)F)ccn5)CC4)CC3)nc21` [Cmpd 811] registered a concentration for a half-maximal effect (EC50) below 10 µM. Then `FC(F)Cn1ncc2ncc(N3CCC4(CCN(c5ccnc(C(F)(F)F)c5)CC4)CC3)nc21` [Cmpd 812], with below 10 µM. As to `FC(F)Cn1ncc2ncc(N3CCC4(CCN(c5cncc(C(F)(F)F)n5)CC4)CC3)nc21` [Cmpd 813], the 50% effective concentration (EC50) was below 10 µM.

In turn, `FC(F)Cn1ncc2ncc(N3CCC4(CCN(c5cnc(C(F)(F)F)cn5)CC4)CC3)nc21` [Cmpd 814] showed a half-maximal effective concentration (EC50) below 10 µM. Regarding `CC1(C)CC2(CCN(c3cnc4cnn(CC(F)F)c4n3)CC2)C(=O)N1c1ccc(C(F)(F)F)nc1` [Cmpd 815], the EC50 was 10 to 50 µM. Then `CC1(C)N(c2ccc(C(F)(F)F)nc2)C(=O)CC12CCN(c1cnc3cnn(CC(F)F)c3n1)CC2` [Cmpd 816], with 10 to 50 µM; and `O=C1N(c2ccnc(C(F)(F)F)c2)C(=O)C2(CCN(c3cnc4cnn(CC(F)F)c4n3)CC2)N1Cc1cc(F)cc(F)c1` [Cmpd 817], with below 10 µM; and `O=C1N(c2ccc(C(F)(F)F)nc2)C(=O)C2(CCN(c3cnc4cnn(CC(F)F)c4n3)CC2)N1Cc1cc(F)cc(F)c1` [Cmpd 818], with below 10 µM. Then `O=C1N(c2cnc(C(F)(F)F)nc2)C(=O)C2(CCN(c3cnc4cnn(CC(F)F)c4n3)CC2)N1Cc1cc(F)cc(F)c1` [Cmpd 819], with below 10 µM. Then `O=C1N(c2cncc(C(F)(F)F)n2)C(=O)C2(CCN(c3cnc4cnn(CC(F)F)c4n3)CC2)N1Cc1cc(F)cc(F)c1` [Cmpd 820], with below 10 µM; and `O=C1N(c2cnc(C(F)(F)F)cn2)C(=O)C2(CCN(c3cnc4cnn(CC(F)F)c4n3)CC2)N1Cc1cc(F)cc(F)c1` [Cmpd 821], with below 10 µM; and `CCOCCN1C(=O)N(c2cc(C(F)(F)F)ccn2)C(=O)C12CCN(c1cnc3cnn(CC(F)F)c3n1)CC2` [Cmpd 822], with above 100 µM. `FC(F)(F)c1ncc(N2CCC3(CCN(c4cncc(-c5nncs5)n4)CC3)C2)cn1` [Cmpd 823]: the EC50 lay within 10 to 50 µM. The compound `FC(F)(F)c1cnc(N2CCC3(CCN(c4cncc(-c5nncs5)n4)CC3)C2)cn1` [Cmpd 824] yielded an EC50 of 10 to 50 µM. To `FC(F)(F)c1ccc(N2CCC3(CCN(c4cncc(-c5nncs5)n4)CC3)C2)nn1` [Cmpd 825] belongs 10 to 50 µM; to `FC(F)Cn1ncc2cnc(N3CCC4(CCN(c5ccc(C(F)(F)F)nc5)C4)CC3)nc21` [Cmpd 827], 10 to 50 µM.

These data come from US20250034170A1, “SMALL MOLECULE MODULATORS OF GLUCOCEREBROSIDASE ACTIVITY AND USES THEREOF” (Vanqua Bio, Inc., priority 2021, published 2025).
